Assay results published in patent publication US20250268884A1, “Deuterated Domperidone for Treating Gastroparesis” (CinDome Pharma, Inc., priority 2022, published 2025).

What was measured:
healthy subjects = settings: in vivo
Protocol: Categorical T-wave morphology analysis and measurement of PR and QRS intervals were fully performed manually using a semi-automated process in 3 of the 10 ECG replicates at each time point.
Treatment A: 30 mg CIN-102 [representing approximate steady-state therapeutic exposures in subject population]; Treatment B: 100 mg CIN-102 [representing potential steady-state supratherapeutic exposures in subjects]; Treatment C: 400 mg open-label moxifloxacin; Treatment D: CIN-102 placebo. A subject can appear in more than 1 category. The denominator (Total) is defined as the number of subjects or time points in the QT/QTc population for each treatment.

prolactin = assay: Prolactin concentration (pharmacodynamic evaluation), Phase 2a; type: in vivo, human; settings: Safety Population
Source text: Table 14 summarizes prolactin concentration and change from baseline by scheduled time point and treatment for the Safety Population.

[1] = test system: adults with idiopathic or diabetic gastroparesis; settings: 10 mg BID, Cohort 1, ITT
Source text: Gastric emptying may be measured by the gastric emptying breath test (GEBT). The GEBT is known in the art. Succinctly, the GEBT is a nonradioactive stable isotope breath test used in the art to diagnose or monitor gastroparesis. In this test, the ratio of exhaled ^13CO2/^12CO2 is used to determine the rate of gastric emptying after consumption of a standardized, ^13C-enriched meal. In some embodiments, the ^13C-enriched meal is ^13C-Spirulina platensis. In some examples, the test includes consumption of a standardized, ^13C-enriched meal after an 8-hour fast. See, e.g., the Cairn Gastric Emptying Breath Test (GEBT) Administration Guide at https://cairndiagnostics.com/wp-content/uploads/2019/05/Cairn-GEBT-How-To-Guide-updated-07May2019.pdf, which is hereby incorporated by reference. Breath samples are obtained one or more times prior to consumption of the ^13C-enriched meal and then one or more times after meal consumption. The breath samples are then measured using, e.g., a gas isotope ratio mass spectrometer. […]
Subjects were Evaluated as Follows: • Days −28 to −11: Screening procedures were performed. The ANMS GCSI-DD questionnaire was completed daily for at least 14 days prior to randomization (Day 1); • Days −10 to −3: The ANMS GCSI-DD questionnaire was completed daily. A GEBT was performed on a single day within this window, with breath samples obtained twice prior to consumption of a standardized, carbon-13 (^13C)-enriched meal and then at 45, 90, 120, 150, 180, and 240 minutes after meal consumption after an 8-hour fast. […] On Day 14 (±2 days), the PAGI-SYM and Clinical Grading Assessment questionnaires were completed prior to the final dose of study drug. • A GEBT was administered 30 minutes after study drug administration on Day 14 (±2 days). Breath samples were obtained twice prior to ^13C-enriched meal consumption and then at 45, 90, 120, 150, 180, and 240 minutes after meal consumption after an 8-hour fast. […] Clinical Grading Assessment Scales were also performed.
The primary efficacy variable was the change from baseline in gastric emptying as measured by GEBT at Day 14.
The secondary efficacy variables were the following: • The change from baseline in gastric emptying as measured by GEBT T½ at Day 14; • The change from baseline in ANMS GCSI-DD total scores; and • The change from baseline in ANMS GCSI-DD subscale scores.

## [2H]c1c([2H])c([2H])c2c([nH]c(=O)n2CCCN2CCC(n3c(=O)[nH]c4cc(Cl)ccc43)CC2)c1[2H] [Deudomperidone, 1-{3-[4-(5-chloro-2-oxo-2,3-dihydro-1H-1,3-benzodiazol-1-yl)piperidin-1yl]propyl}-2,3-dihydro(4,5,6,7-D4)-1H-1,3-benzodiazol-2-one]
Healthy subjects
  PR or QRS outliers: no PR or QRS outliers
  treatment-emergent U waves: no treatment-emergent U waves
prolactin; 5 mg BID
  Prolactin, Day 3, mean (SD): 396.7 (185.83) mIU/L
  Prolactin, Day 7, mean (SD): 622.9 (317.61) mIU/L
  Prolactin, Day 10, mean (SD): 449.7 (147.64) mIU/L
  Prolactin, Day 14, mean (SD): 578.0 (205.82) mIU/L
  Prolactin, change from baseline to Day 3, mean (SD): 143.4 (124.58) mIU/L
  Prolactin, change from baseline to Day 7, mean (SD): 369.7 (263.19) mIU/L
  Prolactin, change from baseline to Day 10, mean (SD): 196.4 (99.96) mIU/L
  Prolactin, change from baseline to Day 14, mean (SD): 324.8 (187.12) mIU/L
prolactin; 10 mg BID
  Prolactin, Day 3, mean: 570.2 mIU/L
  Prolactin, Day 7, mean: 640.0 mIU/L
  Prolactin, Day 10, mean: 734.9 mIU/L
  Prolactin, Day 14, mean: 774.2 mIU/L
  Prolactin, change from baseline to Day 3: 351.5 mIU/L
  Prolactin, change from baseline to Day 7: 421.2 mIU/L
  Prolactin, change from baseline to Day 10: 512.1 mIU/L
  Prolactin, change from baseline to Day 14: 555.5 mIU/L
prolactin; 10 mg BID, n = 2
  Prolactin, change from baseline to follow-up/early termination: −32.5 mIU/L
  Prolactin, follow-up/early termination, mean: 195.0 mIU/L
prolactin; 20 mg QD
  Prolactin, Day 3, mean: 830.5 mIU/L
  Prolactin, Day 7, mean: 1219.5 mIU/L
  Prolactin, Day 10, mean: 1264.1 mIU/L
  Prolactin, Day 14, mean: 1251.9 mIU/L
  Prolactin, change from baseline to Day 3: 522.1 mIU/L
  Prolactin, change from baseline to Day 7: 911.1 mIU/L
  Prolactin, change from baseline to Day 10: 955.8 mIU/L
  Prolactin, change from baseline to Day 14: 943.6 mIU/L
[1]
  GEBT 45 minutes post meal consumption, Day 14, mean: 10.74 kPCD
  GEBT 45 minutes post meal consumption, change from baseline to Day 14: 1.96 kPCD
  GEBT 45 minutes post meal consumption, percent change from baseline to Day 14: 89.31%
  GEBT 90 minutes post meal consumption, Day 14, mean: 23.60 kPCD
  GEBT 90 minutes post meal consumption, change from baseline to Day 14: 3.37 kPCD
  GEBT 90 minutes post meal consumption, percent change from baseline to Day 14: 56.73%
  GEBT 120 minutes post meal consumption, Day 14, mean: 32.68 kPCD
  GEBT 120 minutes post meal consumption, change from baseline to Day 14: 3.86 kPCD
  GEBT 120 minutes post meal consumption, percent change from baseline to Day 14: 40.17%
  GEBT 150 minutes post meal consumption, Day 14, mean: 37.13 kPCD
  GEBT 150 minutes post meal consumption, change from baseline to Day 14: 1.25 kPCD
  GEBT 150 minutes post meal consumption, percent change from baseline to Day 14: 23.46%
  GEBT 180 minutes post meal consumption, Day 14, mean: 40.96 kPCD
  GEBT 180 minutes post meal consumption, change from baseline to Day 14: 1.85 kPCD
  GEBT 180 minutes post meal consumption, percent change from baseline to Day 14: 20.31%
  GEBT 240 minutes post meal consumption, Day 14, mean: 41.41 kPCD
  GEBT 240 minutes post meal consumption, change from baseline to Day 14: −0.79 kPCD
  GEBT 240 minutes post meal consumption, percent change from baseline to Day 14: 9.46%
